For orientation: IC50 means the concentration needed to halve the response being measured. In general, inhibition in vivo refers to the relative decrease from the control value, in per cent.

This note sets out measurements from ChEMBL document CHEMBL4725449, “Brain Penetrable Inhibitors of Ceramide Galactosyltransferase for the Treatment of Lysosomal Storage Disorders” (ACS Med Chem Lett, 2020).

Test [1] has as its target T1, 2-hydroxyacylsphingosine 1-beta-galactosyltransferase (Homo sapiens, UniProt Q16880).
T1 sequence (Q16880 whole entry): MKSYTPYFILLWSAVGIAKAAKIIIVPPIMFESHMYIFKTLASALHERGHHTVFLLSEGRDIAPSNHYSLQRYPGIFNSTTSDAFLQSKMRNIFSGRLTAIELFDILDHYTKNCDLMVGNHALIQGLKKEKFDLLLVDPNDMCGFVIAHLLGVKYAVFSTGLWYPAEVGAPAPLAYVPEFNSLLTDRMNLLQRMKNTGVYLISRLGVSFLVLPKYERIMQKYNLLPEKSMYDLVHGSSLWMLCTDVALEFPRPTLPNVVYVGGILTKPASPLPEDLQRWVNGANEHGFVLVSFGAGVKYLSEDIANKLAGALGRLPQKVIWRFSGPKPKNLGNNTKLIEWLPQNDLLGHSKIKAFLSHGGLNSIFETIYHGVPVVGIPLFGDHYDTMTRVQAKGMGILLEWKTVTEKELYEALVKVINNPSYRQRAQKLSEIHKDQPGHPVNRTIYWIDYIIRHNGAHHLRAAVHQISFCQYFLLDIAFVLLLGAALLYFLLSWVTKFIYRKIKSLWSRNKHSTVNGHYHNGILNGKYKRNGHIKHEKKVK
The test is described as follows: Inhibition of UGT8 in human OE19 cells assessed as redcution in SFT accumulation measured after 72 hrs by LC-MS/MS analysis. It is filed as cell-based.

Test [2] in a line: In vivo inhibition of GalCer de novo synthesis in adult C57BL/6 mouse kidney assessed as reduction in [13C] galactose incorporation into GalCer at 1 mg/kg, po via gavage treated with compound for 1 hr prior to intraperitoneal injection of [13C] galactose measured after 5 hrs of compound administration relative to control. Format: functional.
The nature of test [3]: In vivo inhibition of GalCer de novo synthesis in PN14 to PN21 days C57BL/6 mouse brain assessed as reduction in [13C] galactose incorporation into GalCer at 10 mg/kg, po bid for 2 days and single dose at day 3 treated 1 hr prior to intraperitoneal injection of [13C] galactose measured after 5 hrs of last dose relative to control. It is filed as functional. The settings on record: C57BL/6, 72 h, time 3 day.

Consider `CNC(=O)c1csc2c(C(F)(F)F)cc(N3CCC(OC(=O)N[C@@H](C)COC(F)(F)F)CC3)nc12`, for which the IC50 in test [1] turned out to be 0.2 nM. Moreover, the inhibition in vivo at 1 mg/kg in test [2] turned out to be 43%. For the same compound, in test [3], the inhibition in vivo at 10 mg/kg was 94%.
